PubChem BioAssay AID248 (DTP/NCI, 2004)
“And” between values parts separate entries of the source, which are not always exact repeats. Equal entries are not always repeated. Inconclusive results and toxic doses are left out. Rule as the data show it: active = T/C of 150% or more; inactive = T/C below 125%.

System: L1210 leukemia ip in BDF1 mice, survival T/C
Experiment: NCI In Vivo Anticancer Drug Screen. Data for tumor model L1210 Leukemia (intraperitoneal) in B6D2F1 (BDF1) mice
Settings: higher = longer survival
How it was run: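 Value reflects the ratio of survival in compound-treated mice to survival in vehicle-treated controls, with both groups carrying the same transplanted tumor.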

Measured: T/C

O=c1[nH]cc(F)c(=O)[nH]1
inactive: endpoint: mean survival time, dose: 0.06 mg/kg/injection, schedule: Q#A X Z (ip), vehicle: carboxymethylcellulose (CMC) 103 % of control | endpoint: mean survival time, dose: 0.12 mg/kg/injection, schedule: Q#A X Z (ip), vehicle: carboxymethylcellulose (CMC) 108 % of control | endpoint: mean survival time, dose: 0.25 mg/kg/injection, schedule: Q#A X Z (ip), vehicle: carboxymethylcellulose (CMC) 106 % of control | endpoint: mean survival time, dose: 0.5 mg/kg/injection, schedule: Q#A X Z (ip), vehicle: carboxymethylcellulose (CMC) 112 % of control | endpoint: mean survival time, dose: 0.63 mg/kg/injection, schedule: Q01DX015 (ip), vehicle: water 100 % of control | endpoint: mean survival time, dose: 0.75 mg/kg/injection, schedule: Q03DX006 (ip), vehicle: carboxymethylcellulose (CMC) 105 % of control | endpoint: mean survival time, dose: 1.0 mg/kg/injection, schedule: Q01DX009 (ip), vehicle: other 105 % of control | endpoint: mean survival time, dose: 1.4 mg/kg/injection, schedule: Q01DX Z (ip), vehicle: saline 109 % of control | endpoint: mean survival time, dose: 2.0 mg/kg/injection, schedule: Q01DX005 (iv), vehicle: carboxymethylcellulose (CMC) 108 % of control | endpoint: mean survival time, dose: 2.0 mg/kg/injection, schedule: Q01DX Z (im), vehicle: carboxymethylcellulose (CMC) 108 % of control | endpoint: mean survival time, dose: 2.0 mg/kg/injection, schedule: Q01DX Z (ip), vehicle: carboxymethylcellulose (CMC) 108 % of control | endpoint: mean survival time, dose: 2.5 mg/kg/injection, schedule: Q01DX015 (ip), vehicle: water 107 % of control | endpoint: mean survival time, dose: 4.0 mg/kg/injection, schedule: Q01DX005 (iv), vehicle: carboxymethylcellulose (CMC) 111 % of control | endpoint: mean survival time, dose: 4.8 mg/kg/injection, schedule: Q04DX002 (ip), vehicle: saline 93 % of control and 101 % of control | endpoint: mean survival time, dose: 5.0 mg/kg/injection, schedule: Q01DX006 (ip), vehicle: saline 110 % of control | endpoint: mean survival time, dose: 5.0 mg/kg/injection, schedule: Q01DX010 (ip), vehicle: saline 107 % of control | endpoint: mean survival time, dose: 8.0 mg/kg/injection, schedule: Q01DX005 (iv), vehicle: carboxymethylcellulose (CMC) 108 % of control | endpoint: mean survival time, dose: 8.4 mg/kg/injection, schedule: Q01DX009 (ip), vehicle: saline 102 % of control | endpoint: mean survival time, dose: 8.4 mg/kg/injection, schedule: Q01DX Z (ip), vehicle: saline 102 % of control | endpoint: mean survival time, dose: 9.5 mg/kg/injection, schedule: Q04DX002 (ip), vehicle: saline 101 % of control and 102 % of control | endpoint: mean survival time, dose: 10.0 mg/kg/injection, schedule: Q01DX009 (oral), vehicle: saline 111 % of control | endpoint: mean survival time, dose: 12.5 mg/kg/injection, schedule: Q04DX003 (ip), vehicle: saline 98 % of control | endpoint: mean survival time, dose: 13.3 mg/kg/injection, schedule: Q04DX003 (ip), vehicle: saline 110 % of control | endpoint: mean survival time, dose: 16.0 mg/kg/injection, schedule: Q#A X Z (ip), vehicle: carboxymethylcellulose (CMC) 108 % of control | endpoint: mean survival time, dose: 19.0 mg/kg/injection, schedule: Q04DX002 (ip), vehicle: saline 101 % of control | endpoint: mean survival time, dose: 27.5 mg/kg/injection, schedule: Q01DX012 (sc), vehicle: other 110 % of control | endpoint: mean survival time, dose: 30.0 mg/kg/injection, schedule: Q01DX009 (ip), vehicle: none 109 % of control | endpoint: mean survival time, dose: 30.0 mg/kg/injection, schedule: Q01DX009 (ip), vehicle: saline 101 % of control and 109 % of control | endpoint: mean survival time, dose: 30.0 mg/kg/injection, schedule: Q01DX Z (ip), vehicle: saline 97 % of control | endpoint: mean survival time, dose: 30.0 mg/kg/injection, schedule: Q## X Z (ip), vehicle: saline 98 % of control | endpoint: mean survival time, dose: 39.0 mg/kg/injection, schedule: Q01DX009 (ip), vehicle: saline 109 % of control | endpoint: mean survival time, dose: 39.0 mg/kg/injection, schedule: Q01DX Z (ip), vehicle: saline 96 % of control and 109 % of control | endpoint: mean survival time, dose: 40.0 mg/kg/injection, schedule: Q01DX010 (ip), vehicle: saline 100 % of control | endpoint: mean survival time, dose: 40.0 mg/kg/injection, schedule: Q01DX Z (ip), vehicle: methylcellulose (MC) 103 % of control | endpoint: mean survival time, dose: 45.0 mg/kg/injection, schedule: Q## X006 (ip), vehicle: saline 95 % of control | endpoint: mean survival time, dose: 50.0 mg/kg/injection, schedule: Q01DX Z (ip), vehicle: methylcellulose (MC) 94 % of control | endpoint: mean survival time, dose: 52.0 mg/kg/injection, schedule: Q01DX009 (ip), vehicle: saline 111 % of control | endpoint: mean survival time, dose: 64.0 mg/kg/injection, schedule: Q01DX Z (im), vehicle: carboxymethylcellulose (CMC) 96 % of control | endpoint: mean survival time, dose: 64.0 mg/kg/injection, schedule: Q01DX Z (oral), vehicle: carboxymethylcellulose (CMC) 94 % of control | endpoint: mean survival time, dose: 64.0 mg/kg/injection, schedule: Q01DX Z (sc), vehicle: carboxymethylcellulose (CMC) 105 % of control | endpoint: mean survival time, dose: 65.0 mg/kg/injection, schedule: Q01DX009 (ip), vehicle: saline 93 % of control | endpoint: mean survival time, dose: 67.0 mg/kg/injection, schedule: Q02DX010 (ip), vehicle: other 102 % of control | endpoint: mean survival time, dose: 67.1 mg/kg/injection, schedule: Q01DX005 (sc), vehicle: other 100 % of control | endpoint: mean survival time, dose: 68.0 mg/kg/injection, schedule: Q02DX010 (ip), vehicle: carboxymethylcellulose (CMC) 108 % of control | endpoint: mean survival time, dose: 68.0 mg/kg/injection, schedule: Q02DX010 (ip), vehicle: other 98 % of control | endpoint: mean survival time, dose: 80.0 mg/kg/injection, schedule: Q01DX005 (ip), vehicle: Klucel (hydroxypropylcellulose) (HPC) 97 % of control | endpoint: mean survival time, dose: 80.0 mg/kg/injection, schedule: Q01DX005 (ip), vehicle: acetone 100 % of control | endpoint: mean survival time, dose: 80.0 mg/kg/injection, schedule: Q01DX005 (ip), vehicle: other 100 % of control | endpoint: mean survival time, dose: 80.0 mg/kg/injection, schedule: Q01DX006 (ip), vehicle: saline 103 % of control | endpoint: mean survival time, dose: 80.0 mg/kg/injection, schedule: Q01DX009 (ip), vehicle: none 93 % of control | endpoint: mean survival time, dose: 80.0 mg/kg/injection, schedule: Q01DX009 (ip), vehicle: water 95 % of control | endpoint: mean survival time, dose: 80.0 mg/kg/injection, schedule: Q01DX009 (oral), vehicle: saline 103 % of control | endpoint: mean survival time, dose: 80.0 mg/kg/injection, schedule: Q01DX015 (ip), vehicle: saline 110 % of control | endpoint: mean survival time, dose: 80.0 mg/kg/injection, schedule: Q02DX005 (ip), vehicle: water 108 % of control | endpoint: mean survival time, dose: 90.0 mg/kg/injection, schedule: Q04DX004 (ip), vehicle: saline 98 % of control | endpoint: mean survival time, dose: 94.5 mg/kg/injection, schedule: Q02DX010 (ip), vehicle: carboxymethylcellulose (CMC) 109 % of control | endpoint: mean survival time, dose: 101.0 mg/kg/injection, schedule: Q02DX010 (ip), vehicle: carboxymethylcellulose (CMC) 95 % of control | endpoint: mean survival time, dose: 120.0 mg/kg/injection, schedule: Q01DX006 (ip), vehicle: saline 98 % of control | endpoint: mean survival time, dose: 120.0 mg/kg/injection, schedule: Q04DX003 (ip), vehicle: saline with Tween-80 93 % of control and 96 % of control and 102 % of control | endpoint: mean survival time, dose: 120.0 mg/kg/injection, schedule: Q## X004 (ip), vehicle: water 105 % of control | endpoint: mean survival time, dose: 128.0 mg/kg/injection, schedule: Q01DX005 (iv), vehicle: carboxymethylcellulose (CMC) 109 % of control | endpoint: mean survival time, dose: 164.0 mg/kg/injection, schedule: Q01DX002 (sc), vehicle: other 95 % of control | endpoint: mean survival time, dose: 177.6 mg/kg/injection, schedule: Q01DX001 (ip), vehicle: carboxymethylcellulose (CMC) 111 % of control | endpoint: mean survival time, dose: 180.0 mg/kg/injection, schedule: Q## X004 (ip), vehicle: water 107 % of control | endpoint: mean survival time, dose: 200.0 mg/kg/injection, schedule: Q02DX005 (ip), vehicle: saline 96 % of control | endpoint: mean survival time, dose: 200.0 mg/kg/injection, schedule: Q04DX002 (ip), vehicle: saline 110 % of control | endpoint: mean survival time, dose: 256.0 mg/kg/injection, schedule: Q01DX001 (sc), vehicle: other 101 % of control | endpoint: mean survival time, dose: 256.0 mg/kg/injection, schedule: Q01DX005 (iv), vehicle: carboxymethylcellulose (CMC) 103 % of control | endpoint: mean survival time, dose: 300.0 mg/kg/injection, schedule: Q01DX001 (ip), vehicle: Klucel (hydroxypropylcellulose) (HPC) 104 % of control | endpoint: mean survival time, dose: 320.0 mg/kg/injection, schedule: Q01DX009 (ip), vehicle: saline 94 % of control | endpoint: mean survival time, dose: 400.0 mg/kg/injection, schedule: Q04DX003 (ip), vehicle: saline 97 % of control | endpoint: mean survival time, dose: 400.0 mg/kg/injection, schedule: Q## X004 (ip), vehicle: alkali diluted with saline 109 % of control | endpoint: mean survival time, dose: 600.0 mg/kg/injection, schedule: Q01DX001 (ip), vehicle: carboxymethylcellulose (CMC) 106 % of control | endpoint: mean survival time, dose: 900.0 mg/kg/injection, schedule: Q01DX001 (ip), vehicle: water 101 % of control | endpoint: mean survival time, dose: 900.0 mg/kg/injection, schedule: Q## X004 (ip), vehicle: alkali diluted with saline 104 % of control | endpoint: median survival time, dose: 4.0 mg/kg/injection, schedule: Q01DX009 (ip), vehicle: saline 98 % of control and 100 % of control | endpoint: median survival time, dose: 8.0 mg/kg/injection, schedule: Q01DX009 (ip), vehicle: saline 98 % of control and 100 % of control | endpoint: median survival time, dose: 16.0 mg/kg/injection, schedule: Q01DX009 (ip), vehicle: saline 100 % of control and 102 % of control | endpoint: median survival time, dose: 23.0 mg/kg/injection, schedule: Q04DX003 (oral), vehicle: saline 106 % of control | endpoint: median survival time, dose: 65.0 mg/kg/injection, schedule: Q01DX005 (ip), vehicle: saline 98 % of control | endpoint: median survival time, dose: 65.0 mg/kg/injection, schedule: Q01DX009 (ip), vehicle: saline 106 % of control | endpoint: median survival time, dose: 75.0 mg/kg/injection, schedule: Q01DX001 (ip), vehicle: saline 109 % of control | endpoint: median survival time, dose: 300.0 mg/kg/injection, schedule: Q01DX001 (ip), vehicle: alkali diluted with saline 97 % of control | endpoint: median survival time, dose: 300.0 mg/kg/injection, schedule: Q04DX003 (oral), vehicle: saline 102 % of control | endpoint: median survival time, dose: 300.0 mg/kg/injection, schedule: Q04DX003 (sc), vehicle: saline 105 % of control | endpoint: median survival time, dose: 500.0 mg/kg/injection, schedule: Q04DX003 (oral), vehicle: saline 108 % of control | endpoint: median survival time, dose: 600.0 mg/kg/injection, schedule: Q01DX001 (ip), vehicle: alkali diluted with saline 101 % of control
